# Legend:
# [1] = biological target: neuronal nicotinic acetylcholine receptors (Rattus norvegicus, UniProt P09483+P12390); assay: [3H]-cytisine binding to neuronal nicotinic acetylcholine receptors, crude synaptic membranes from whole rat brain; conditions: [3H]-CYT 1.25 nM, 60 minutes at 4° C., K1 from IC50 by Cheng and Prusoff correction
# Procedure: The in vitro protocols for determination of nicotinic acetylcholine channel receptor binding potencies of ligands was determined as follows.
# Binding of [^3H]-cytisine ([^3H]-CYT) to neuronal nicotinic acetylcholine receptors was accomplished using crude synaptic membrane preparations from whole rat brain (Pabreza et al., Molecular Pharmacol., 1990, 39:9). Washed membranes were stored at −80° C. prior to use. Frozen aliquots were slowly thawed and resuspended in 20 volumes of buffer (containing: 120 mM NaCl, 5 mM KCl, 2 mM MgCl2, 2 mM CaCl2 and 50 mM Tris-Cl, pH 7.4 @4° C.). After centrifuging at 20,000×g for 15 minutes, the pellets were resuspended in 30 volumes of buffer.
# The test compounds were dissolved in water to make 10 mM stock solutions.
# Samples were incubated for 60 minutes at 4° C., then rapidly filtered through Whatman GF/B filters presoaked in 0.5% polyethyleneimine using 3×4 mL of ice-cold buffer. The filters are counted in 4 mL of Ecolume® (ICN). Nonspecific binding was determined in the presence of 10 μM (−)-nicotine and values were expressed as a percentage of total binding. IC50 values were determined with a four-parameter non-linear regression and IC50 values were converted to K1 values using the Cheng and Prusoff correction (K1=IC50/(1+[ligand]/Kd of ligand).
# Each Example number corresponds to the synthetic Examples described above.
# [2] = system: mice (hot plate paradigm); assay: mouse hot plate paradigm (analgesia, tenth jump latency); type: in vivo; conditions: footnote symbols: no significant effect at the stated dose, intraperitoneal, 30 minutes prior to testing, hot plate 55° C.
# Procedure: An in vivo protocol was utilized to determine the effectiveness of nicotinic acetylcholine receptor ligands as analgesic agents in the mouse hot plate paradigm.
# Separate groups of mice, (n=8/group) were utilized for each dose group. All drugs were administered by the intraperitoneal route of administration. Test drugs were dissolved in water to make a 6.2 mM stock solution. Animals were dosed with this solution (10 mL/kg body weight) for a 62 micromol/kg dose. Lower doses were administered similarly, following serial dilution of the stock solution in half-log increments. Animals were dosed 30 minutes prior to testing in the hot plate. The hot-plate utilized was an automated analgesia monitor (Model #AHP16AN, Omnitech Electronics, Inc. of Columbus, Ohio). The temperature of the hot plate was maintained at 55° C. and a cut-off time of 180 seconds was utilized. A control was run against each compound tested. Latency until the tenth jump was recorded as the dependent measure. An increase in the tenth jump latency relative to the control was considered a significant effect.
# Chain of neuronal nicotinic acetylcholine receptors (P09483 31-630): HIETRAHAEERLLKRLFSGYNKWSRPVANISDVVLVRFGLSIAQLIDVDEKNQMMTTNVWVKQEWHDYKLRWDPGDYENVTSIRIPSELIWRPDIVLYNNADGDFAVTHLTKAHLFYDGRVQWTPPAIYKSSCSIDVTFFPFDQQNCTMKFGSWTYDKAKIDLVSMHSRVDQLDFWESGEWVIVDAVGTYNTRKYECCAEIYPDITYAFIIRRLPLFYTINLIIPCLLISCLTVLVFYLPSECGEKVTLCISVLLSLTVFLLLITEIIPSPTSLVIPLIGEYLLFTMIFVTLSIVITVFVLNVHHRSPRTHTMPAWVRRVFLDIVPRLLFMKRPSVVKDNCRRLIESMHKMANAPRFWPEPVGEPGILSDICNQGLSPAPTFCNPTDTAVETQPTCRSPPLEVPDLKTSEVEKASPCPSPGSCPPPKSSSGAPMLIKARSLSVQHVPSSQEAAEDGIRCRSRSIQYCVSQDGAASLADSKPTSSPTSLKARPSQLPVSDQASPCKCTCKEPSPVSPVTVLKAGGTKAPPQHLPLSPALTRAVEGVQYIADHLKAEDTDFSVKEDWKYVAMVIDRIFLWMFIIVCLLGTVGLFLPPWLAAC
# Chain of neuronal nicotinic acetylcholine receptors (P12390 25-500): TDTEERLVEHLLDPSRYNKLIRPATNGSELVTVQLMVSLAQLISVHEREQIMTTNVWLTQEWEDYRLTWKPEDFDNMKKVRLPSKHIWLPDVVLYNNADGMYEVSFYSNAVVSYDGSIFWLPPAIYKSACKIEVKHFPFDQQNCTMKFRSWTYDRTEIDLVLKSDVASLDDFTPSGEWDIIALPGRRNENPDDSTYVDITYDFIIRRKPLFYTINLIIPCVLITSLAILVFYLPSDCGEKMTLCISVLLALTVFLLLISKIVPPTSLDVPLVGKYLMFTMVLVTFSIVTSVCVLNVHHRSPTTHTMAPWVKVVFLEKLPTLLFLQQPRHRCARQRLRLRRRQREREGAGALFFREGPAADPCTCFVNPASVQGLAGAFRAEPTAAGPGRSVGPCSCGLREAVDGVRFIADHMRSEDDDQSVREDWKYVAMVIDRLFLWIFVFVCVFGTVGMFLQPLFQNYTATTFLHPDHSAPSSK
Molecule,Ki [1] [nM],Analgesic MED (μmol/kg) [2],melting point [°C],"minimal effective dose ([2]; Mus musculus, ip, 0.5 h, read-out: Analgesic MED) [µmol/kg]"
5-[(S)-2-amino-1-propyloxy]-2-chloro-3-(4-vinylpyridinyl)pyridine p-toluenesulfonic acid [Example 13],0.0761,,,
"C[C@@H](COc1cnc(Cl)c(C=Cc2ccncc2)c1)N(C)C (single isomer, unassigned) [Example 14]",,* (no effect at 62),79 to 81,
"C[C@H](COc1cnc(Cl)c(C=Cc2ccncc2)c1)N(C)C (single isomer, unassigned) [Example 39]",,* (no effect at 62),81 to 83,
"CN(C)[C@H](COc1cnc(Cl)c(C=Cc2ccncc2)c1)Cc1ccccc1 [Example 24, 5-[(S)-2-N-dimethyl-amino-3-phenyl-1-propyloxy]-2-chloro-3-(4-vinylpyridinyl)pyridine di-p-toluenesulfonic acid]",,,,> 62
"C[C@@H](COc1ccc(Cl)nc1)N(C)C.Cc1ccc(S(=O)(=O)O)cc1 [Example 27, 5-[(S)-2-dimethylamino-1-propyloxy]-2-chloro pyridine p-toluenesulfonic acid]",,* (no effect at 62),,

# From patent publication US6656958B2, “Substituted pyridine compounds useful for controlling chemical synaptic transmission” (Abbott Laboratories, priority 2000, dated 2003)
